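Five concentrations, 48 hours, 96-well plates. TGI denotes the concentration required for complete inhibition of growth.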
Legend:
Assay in all cases: DTP human tumour cell line panel, 48 h
OVCAR-8 ovarian = system: OVCAR-8 ovarian
NCI-H226 lung = system: NCI-H226 lung
CAKI-1 renal = system: CAKI-1 renal
HT29 colon = system: HT29 colon
HCT-15 colon = system: HCT-15 colon
A498 renal = system: A498 renal
COLO 205 colon = system: COLO 205 colon
SF-539 CNS = system: SF-539 CNS
HL-60(TB) leukemia = system: HL-60(TB) leukemia
SK-MEL-5 melanoma = system: SK-MEL-5 melanoma
OVCAR-3 ovarian = system: OVCAR-3 ovarian
SR leukemia = system: SR leukemia
786-0 renal = system: 786-0 renal
MDA-N = system: MDA-N
PC-3 prostate = system: PC-3 prostate
SW-620 colon = system: SW-620 colon
U251 CNS = system: U251 CNS
UO-31 renal = system: UO-31 renal
OVCAR-4 ovarian = system: OVCAR-4 ovarian
MALME-3M melanoma = system: MALME-3M melanoma
M14 melanoma = system: M14 melanoma
NCI-H522 lung = system: NCI-H522 lung
MOLT-4 leukemia = system: MOLT-4 leukemia
T-47D breast = system: T-47D breast
SNB-19 CNS = system: SNB-19 CNS
CCRF-CEM leukemia = system: CCRF-CEM leukemia
KM12 colon = system: KM12 colon
HOP-62 NSCLC = system: HOP-62 NSCLC
HCT-116 colon = system: HCT-116 colon
SK-MEL-2 melanoma = system: SK-MEL-2 melanoma
UACC-62 melanoma = system: UACC-62 melanoma
NCI-H23 lung = system: NCI-H23 lung
A549 NSCLC = system: A549 NSCLC
HOP-92 NSCLC = system: HOP-92 NSCLC
NCI-H460 lung = system: NCI-H460 lung
DU-145 prostate = system: DU-145 prostate
SK-OV-3 ovarian = system: SK-OV-3 ovarian
SK-MEL-28 melanoma = system: SK-MEL-28 melanoma
NCI/ADR-RES ovarian = system: NCI/ADR-RES ovarian
HCC-2998 colon = system: HCC-2998 colon
RPMI-8226 leukemia = system: RPMI-8226 leukemia
UACC-257 melanoma = system: UACC-257 melanoma
EKVX NSCLC = system: EKVX NSCLC
SF-268 CNS = system: SF-268 CNS
BT-549 breast = system: BT-549 breast
RXF 393 renal = system: RXF 393 renal
SNB-75 CNS = system: SNB-75 CNS
OVCAR-5 ovarian = system: OVCAR-5 ovarian
SN12C renal = system: SN12C renal
IGROV1 ovarian = system: IGROV1 ovarian
HS 578T breast = system: HS 578T breast
TK-10 renal = system: TK-10 renal
K-562 leukemia = system: K-562 leukemia
MCF7 breast = system: MCF7 breast
MDA-MB-435 = system: MDA-MB-435
MDA-MB-231 breast = system: MDA-MB-231 breast
ACHN renal = system: ACHN renal
SF-295 CNS = system: SF-295 CNS
LOX IMVI melanoma = system: LOX IMVI melanoma

Clc1ccc(-c2noc(CN3CCCCC3)n2)cc1
TGI (OVCAR-8 ovarian): > 100 µM
TGI (NCI-H226 lung): > 100 µM
TGI (CAKI-1 renal): > 100 µM
TGI (HT29 colon): > 100 µM
TGI (HCT-15 colon): > 100 µM
TGI (A498 renal): > 100 µM
TGI (COLO 205 colon): > 100 µM
TGI (SF-539 CNS): > 100 µM
TGI (HL-60(TB) leukemia): > 100 µM
TGI (SK-MEL-5 melanoma): > 100 µM
TGI (OVCAR-3 ovarian): > 100 µM
TGI (SR leukemia): > 100 µM
TGI (786-0 renal): > 100 µM
TGI (MDA-N): > 100 µM
TGI (PC-3 prostate): > 100 µM
TGI (SW-620 colon): > 100 µM
TGI (U251 CNS): > 100 µM
TGI (UO-31 renal): > 100 µM
TGI (OVCAR-4 ovarian): > 100 µM
TGI (MALME-3M melanoma): > 100 µM
TGI (M14 melanoma): > 100 µM
TGI (NCI-H522 lung): > 100 µM
TGI (MOLT-4 leukemia): > 100 µM
TGI (T-47D breast): > 100 µM
TGI (SNB-19 CNS): > 100 µM
TGI (CCRF-CEM leukemia): > 100 µM
TGI (KM12 colon): > 100 µM
TGI (HOP-62 NSCLC): > 100 µM
TGI (HCT-116 colon): > 100 µM
TGI (SK-MEL-2 melanoma): > 100 µM
TGI (UACC-62 melanoma): > 100 µM
TGI (NCI-H23 lung): > 100 µM
TGI (A549 NSCLC): > 100 µM
TGI (HOP-92 NSCLC): > 100 µM
TGI (NCI-H460 lung): > 100 µM
TGI (DU-145 prostate): > 100 µM
TGI (SK-OV-3 ovarian): > 100 µM
TGI (SK-MEL-28 melanoma): > 100 µM
TGI (NCI/ADR-RES ovarian): > 100 µM
TGI (HCC-2998 colon): > 100 µM
TGI (RPMI-8226 leukemia): > 100 µM
TGI (UACC-257 melanoma): > 100 µM
TGI (EKVX NSCLC): > 100 µM
TGI (SF-268 CNS): > 100 µM
TGI (BT-549 breast): > 100 µM
TGI (RXF 393 renal): > 100 µM
TGI (SNB-75 CNS): > 100 µM
TGI (OVCAR-5 ovarian): > 100 µM
TGI (SN12C renal): > 100 µM
TGI (IGROV1 ovarian): > 100 µM
TGI (HS 578T breast): > 100 µM
TGI (TK-10 renal): > 100 µM
TGI (K-562 leukemia): > 100 µM
TGI (MCF7 breast): > 100 µM
TGI (MDA-MB-435): > 100 µM
TGI (MDA-MB-231 breast): > 100 µM
TGI (ACHN renal): > 100 µM
TGI (SF-295 CNS): > 100 µM

O=C(N/N=C\c1c(O)ccc2ccccc12)c1ccncc1
TGI (OVCAR-8 ovarian): > 25 µM
TGI (NCI-H226 lung): 2.67 µM
TGI (CAKI-1 renal): > 4.94 µM
TGI (HT29 colon): > 25 µM
TGI (HCT-15 colon): > 25 µM
TGI (A498 renal): > 15.6 µM
TGI (COLO 205 colon): > 14.2 µM
TGI (SF-539 CNS): 8.2 µM
TGI (HL-60(TB) leukemia): 5.91 µM
TGI (SK-MEL-5 melanoma): > 9.41 µM
TGI (OVCAR-3 ovarian): > 25 µM
TGI (SR leukemia): > 25 µM
TGI (786-0 renal): > 25 µM
TGI (MDA-N): > 25 µM
TGI (PC-3 prostate): > 25 µM
TGI (SW-620 colon): > 25 µM
TGI (U251 CNS): > 25 µM
TGI (UO-31 renal): 3.95 µM
TGI (OVCAR-4 ovarian): > 22.2 µM
TGI (MALME-3M melanoma): > 7.77 µM
TGI (M14 melanoma): > 19.4 µM
TGI (NCI-H522 lung): > 7.49 µM
TGI (T-47D breast): > 25 µM
TGI (SNB-19 CNS): > 25 µM
TGI (KM12 colon): > 25 µM
TGI (HOP-62 NSCLC): > 25 µM
TGI (HCT-116 colon): > 25 µM
TGI (SK-MEL-2 melanoma): > 9.41 µM
TGI (UACC-62 melanoma): 2.04 µM
TGI (NCI-H23 lung): > 25 µM
TGI (A549 NSCLC): > 25 µM
TGI (HOP-92 NSCLC): 18.8 µM
TGI (NCI-H460 lung): > 6.82 µM
TGI (DU-145 prostate): > 25 µM
TGI (SK-OV-3 ovarian): 24.3 µM
TGI (SK-MEL-28 melanoma): > 25 µM
TGI (NCI/ADR-RES ovarian): > 8.64 µM
TGI (HCC-2998 colon): > 25 µM
TGI (RPMI-8226 leukemia): > 5.06 µM
TGI (UACC-257 melanoma): > 25 µM
TGI (EKVX NSCLC): > 25 µM
TGI (BT-549 breast): > 8.19 µM
TGI (RXF 393 renal): > 8.59 µM
TGI (SNB-75 CNS): > 25 µM
TGI (OVCAR-5 ovarian): > 25 µM
TGI (SN12C renal): > 5.5 µM
TGI (IGROV1 ovarian): 1.84 µM
TGI (LOX IMVI melanoma): > 25 µM
TGI (HS 578T breast): > 25 µM
TGI (TK-10 renal): > 25 µM
TGI (MCF7 breast): > 7.75 µM
TGI (MDA-MB-435): > 25 µM
TGI (MDA-MB-231 breast): > 5.71 µM
TGI (ACHN renal): > 13.5 µM
TGI (SF-295 CNS): > 25 µM

O=S(=O)(c1ccccc1)[C@H]1[C@@H]2O[C@@H]2C[C@@H]1O
TGI (OVCAR-8 ovarian): > 100 µM
TGI (NCI-H226 lung): > 100 µM
TGI (CAKI-1 renal): > 100 µM
TGI (HT29 colon): > 100 µM
TGI (HCT-15 colon): > 100 µM
TGI (A498 renal): > 100 µM
TGI (COLO 205 colon): > 100 µM
TGI (SF-539 CNS): > 100 µM
TGI (HL-60(TB) leukemia): > 100 µM
TGI (SK-MEL-5 melanoma): > 100 µM
TGI (OVCAR-3 ovarian): > 100 µM
TGI (SR leukemia): > 100 µM
TGI (786-0 renal): > 100 µM
TGI (MDA-N): > 100 µM
TGI (PC-3 prostate): > 100 µM
TGI (SW-620 colon): > 100 µM
TGI (U251 CNS): > 100 µM
TGI (UO-31 renal): > 100 µM
TGI (OVCAR-4 ovarian): > 100 µM
TGI (MALME-3M melanoma): > 100 µM
TGI (M14 melanoma): > 100 µM
TGI (NCI-H522 lung): > 100 µM
TGI (MOLT-4 leukemia): > 100 µM
TGI (T-47D breast): > 100 µM
TGI (SNB-19 CNS): > 100 µM
TGI (CCRF-CEM leukemia): > 100 µM
TGI (KM12 colon): > 100 µM
TGI (HOP-62 NSCLC): > 100 µM
TGI (HCT-116 colon): > 100 µM
TGI (SK-MEL-2 melanoma): > 100 µM
TGI (UACC-62 melanoma): > 100 µM
TGI (NCI-H23 lung): > 100 µM
TGI (A549 NSCLC): > 100 µM
TGI (HOP-92 NSCLC): > 100 µM
TGI (NCI-H460 lung): > 100 µM
TGI (DU-145 prostate): > 100 µM
TGI (SK-OV-3 ovarian): > 100 µM
TGI (SK-MEL-28 melanoma): > 100 µM
TGI (NCI/ADR-RES ovarian): > 100 µM
TGI (HCC-2998 colon): > 100 µM
TGI (RPMI-8226 leukemia): > 100 µM
TGI (UACC-257 melanoma): > 100 µM
TGI (EKVX NSCLC): > 100 µM
TGI (SF-268 CNS): > 100 µM
TGI (BT-549 breast): > 100 µM
TGI (RXF 393 renal): > 100 µM
TGI (SNB-75 CNS): > 100 µM
TGI (OVCAR-5 ovarian): > 100 µM
TGI (SN12C renal): > 100 µM
TGI (IGROV1 ovarian): > 100 µM
TGI (HS 578T breast): > 100 µM
TGI (TK-10 renal): > 100 µM
TGI (K-562 leukemia): > 100 µM
TGI (MCF7 breast): > 100 µM
TGI (MDA-MB-435): > 100 µM
TGI (MDA-MB-231 breast): > 100 µM
TGI (ACHN renal): > 100 µM
TGI (SF-295 CNS): > 100 µM
